Experimental data from patent publication US5436246A, “Serotonin receptor agents” (priority 1993, dated 1995).
Where a name gives a salt, the structure may show the parent alone. Read-outs that look alike come from different tables or passages of the source.

What was measured:
[1] = target: T1, 5HT1D receptor (Bos taurus, UniProt F1MGM3); assay: 5HT1D receptor binding affinity (procedure of Peroutka et al.)
T1 construct: from tissue
Experimental: The compounds affinity for the 5HT1D site was determined by the binding procedure of Peroutka et al as reported in European Journal of Pharmacology, Vol. 163 at pages 133-166 (1989). […] Where multiple determinations of the binding affinity have been performed, the average is given followed by the number of determinations in parentheses.

[2] = target: T2, 5HT1A receptor (Rattus norvegicus, UniProt P19327); assay: 5HT1A receptor binding affinity (procedure of Gozlan et al.)
T2 sequence (P19327 1-422): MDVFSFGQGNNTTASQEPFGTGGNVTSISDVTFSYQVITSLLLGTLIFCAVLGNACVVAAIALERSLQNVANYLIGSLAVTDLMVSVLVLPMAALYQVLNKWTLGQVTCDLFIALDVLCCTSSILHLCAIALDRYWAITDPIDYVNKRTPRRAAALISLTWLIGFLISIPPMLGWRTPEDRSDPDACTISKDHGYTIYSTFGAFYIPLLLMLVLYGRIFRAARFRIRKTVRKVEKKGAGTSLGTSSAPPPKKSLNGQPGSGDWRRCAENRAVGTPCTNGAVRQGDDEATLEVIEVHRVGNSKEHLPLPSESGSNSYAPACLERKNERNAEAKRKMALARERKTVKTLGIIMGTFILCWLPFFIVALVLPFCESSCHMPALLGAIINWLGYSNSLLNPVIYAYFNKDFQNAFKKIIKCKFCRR
Experimental: In the following examples, the compounds binding affinity for both the 5HT1A receptor and 5HT1D receptors is reported. The compounds affinity for the 5HT1D site was determined by the binding procedure of Peroutka et al as reported in European Journal of Pharmacology, Vol. 163 at pages 133-166 (1989). The compounds affinity for the 5HT1A receptor was determined by the procedure of Gozlan et al., as reported in Nature, Volume 305, at pages 140-142 (1983). Where multiple determinations of the binding affinity have been performed, the average is given followed by the number of determinations in parentheses. Also, the PA2 value for the saphenous vein preparation as described in this application is given, followed by the intrinsic (agonist) activity in parentheses, expressed as a percentage. [drawing 10] […]

[3] = target: 5-HT1D receptors (Canis lupus familiaris, UniProt P79250); design: species or system dog (canine)
Experimental: In the following examples, the compounds binding affinity for both the 5HT1A receptor and 5HT1D receptors is reported. The compounds affinity for the 5HT1D site was determined by the binding procedure of Peroutka et al as reported in European Journal of Pharmacology, Vol. 163 at pages 133-166 (1989). The compounds affinity for the 5HT1A receptor was determined by the procedure of Gozlan et al., as reported in Nature, Volume 305, at pages 140-142 (1983). Where multiple determinations of the binding affinity have been performed, the average is given followed by the number of determinations in parentheses. Also, the PA2 value for the saphenous vein preparation as described in this application is given, followed by the intrinsic (agonist) activity in parentheses, expressed as a percentage. [drawing 10]
We have used canine saphenous vein for studying 5-HT1D receptors which is similar, although not totally identical, to human coronary 5-HT1D receptors (see Humphrey, P. P. A., Feniuk, W., Perren, M. J., Connor, H. E., Oxford, A. W., Coates, I. H. and Butina, D.: GR43175, a selective agonist for the 5-HT1 -like receptor in dog isolated saphenous vein, Br. J. Pharmacol. 94:1123-1132, 1988; Kaumann, A. J.: Human heart 5-HT receptors, Second international symposium on serotonin, from cell biology to pharmacology and therapeutics, Houston, Sep. 15-18, 1992).
Mongrel dogs weighing 12-18 kg were killed by an intravenous injection of an overdose of sodium pentobarbitol. Saphenous veins were isolated, removed, cleaned of surrounding connective tissue, and cut into helical strips in a dish containing Krebs-Henseleit solution with the following composition in mM: NaCl, 110.0; KCl, 4.8; CaCl2, 2.5; KH2 PO4, 1.2; EDTA(NaEDTA), 0.027; and was constantly bubbled with 95% O2 -5% CO2. Unless otherwise specified, the endothelium of the […] was removed by rubbing with a metal rod. The intactness or absence of functional endothelium was checked by the presence or absence of a relaxant effect of acetycholine (10^-5 M) in phenylephrine-contracted tissues (see Furchgott, R. F. and Zawadzki, J. V.: The obligatory role of endothelial cells in the relaxtion of arterial smooth muscle by acetycholine, Nature 288:373-376, 1980). Each muscle strip (3×30 mm) was set up in a tissue bath at 37° C. and loaded with 2 gram tension. Contractility of the tissues was measured isometrically with a Grass FT03 force-displacement transducer and recorded on a Strip chart recorder. The tissues were allowed to stabilize for 2 hours before the experiment was started, during which time they were washed repeatedly. Tissues were contracted with 3.162×10^-6 M phenylephrine and 40 mM KCl, which produced 60-70% of their maximum contractile responses, to condition the tissue. 5-HT dose response experiment was conducted. Test compounds were then incubated with the tissue before a second 5-HT dose response experiment was performed. Data are expressed as the pA2 value, the negative logarithm of the molar concentration of antagonist which produced a 2 fold shift in ED50 values of 5-HT dose response curves (see Van Rossum, J. M.: Cumulative dose-response curve: Technique for the making of dose-response curves in isolated organs and the evaluation of drug parameters, Arch. Int. Pharmacodyn. Ther. 143:299-330, 1963).

[4] = average of multiple determinations where number in parentheses is given, read-out: IC50 (5HT1D Binding Affinity)
[5] = average of multiple determinations where number in parentheses is given, read-out: IC50 (5HT1A Binding Affinity)

T1 sequence (F1MGM3 1-403): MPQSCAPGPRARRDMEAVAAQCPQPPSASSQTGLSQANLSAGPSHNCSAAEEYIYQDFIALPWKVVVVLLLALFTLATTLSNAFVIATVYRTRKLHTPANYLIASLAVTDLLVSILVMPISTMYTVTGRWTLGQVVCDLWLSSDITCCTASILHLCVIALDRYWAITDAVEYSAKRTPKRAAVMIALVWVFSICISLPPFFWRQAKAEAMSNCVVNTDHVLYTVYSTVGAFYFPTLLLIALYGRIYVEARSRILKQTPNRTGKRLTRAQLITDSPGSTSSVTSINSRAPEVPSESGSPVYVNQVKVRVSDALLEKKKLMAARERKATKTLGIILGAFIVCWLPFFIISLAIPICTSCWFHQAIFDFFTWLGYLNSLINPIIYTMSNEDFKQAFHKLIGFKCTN
5-HT1D receptors, sequence (P79250 whole entry): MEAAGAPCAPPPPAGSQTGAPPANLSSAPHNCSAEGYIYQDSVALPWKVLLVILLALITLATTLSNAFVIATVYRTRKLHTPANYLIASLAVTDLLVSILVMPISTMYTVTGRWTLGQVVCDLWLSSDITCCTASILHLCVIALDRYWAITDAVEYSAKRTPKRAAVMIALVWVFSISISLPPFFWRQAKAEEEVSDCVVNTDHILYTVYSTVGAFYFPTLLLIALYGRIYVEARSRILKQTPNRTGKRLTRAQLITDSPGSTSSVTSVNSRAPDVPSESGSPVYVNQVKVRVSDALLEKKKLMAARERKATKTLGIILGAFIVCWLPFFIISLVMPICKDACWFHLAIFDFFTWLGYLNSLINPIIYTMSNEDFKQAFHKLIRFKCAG

Row | SMILES | IC50 [1, 4] | IC50 [2, 5] | IC50 [1] | IC50 [2] | other results
1 | N#Cc1cc2c(N3CCN(Cc4ccccc4)CC3)cccc2s1 [Example 3, 4-[4-(phenylmethyl)-1-piperazinyl]-benzo[b]thiophene-2-nitrile monohydrochloride] | > 1 µM | 0.18 µM | – | – | –
2 | CCOC(=O)c1cc2c(N3CCN(CCCc4ccccc4)CC3)cccc2s1 [Example 14, ethyl-4-[4-(3-phenylpropyl)-1-piperazinyl]-benzo[b]thiophene-2-carboxylatemonohydrochloride] | 0.551 µM | 0.239 µM | – | – | –
3 | NC(=O)c1cc2c(N3CCN(CCc4ccc(F)cc4)CC3)cccc2s1 [Example 25, 4-[4-[2-(4-fluorophenyl)ethyl]-piperazinyl]-benzo[b]-thiophene-2-carboxamide monohydrochloride] | – | – | 0.006 µM | 0.0008 µM | –
4 | NC(=O)c1cc2c(N3CCN(Cc4ccccc4)CC3)cccc2s1 [Example 4, 4-[4-(phenylmethyl)-1-piperazinyl]-benzo[b]thiophene-2-carboxamide monohydrochloride] | 0.052 µM | 0.0016 µM | – | – | –
5 | COc1ccc(CCN2CCN(c3cccc4sc(CO)cc34)CC2)cc1 [Example 31, 4-[4-[2-(4-methoxyphenyl)ethyl]-1-piperazinyl]-benzo[b]thiophene-2-methanol monohydrochloride] | – | – | 0.002 µM | 0.001 µM | –
6 | Cc1ccc(CCN2CCN(c3cccc4sc(CO)cc34)CC2)cc1 [Example 27, 4-[4-[2-(4-methylphenyl)-ethyl]-1-piperazinyl]-benzo[b]thiophene-2-methanol monohydrochloride] | – | – | 0.001 µM | 0.003 µM | –
7 | OCc1cc2c(N3CCN(Cc4ccccc4)CC3)cccc2s1 [Example 2, 4-[4-(phenylmethyl)-1-piperazinyl]-benzo[b]thiophene-2-methanol monohydrochloride] | 0.76 µM | 0.035 µM | – | – | –
8 | COCc1cc2c(N3CCNCC3)cccc2s1 [Example 45, 4-(1-piperazinyl)-benzo[b]thiophene-2-methoxymethyl hydrochloride hemihydrate] | – | – | 0.004 µM | – | –
9 | CN1CCN(c2cccc3sc(CO)cc23)CC1 [Example 39, 4-[4-methyl-1-piperazinyl]-benzo[b]thiophene-2-methanol hydrochloride] | – | – | 0.016 µM | – | –
10 | OCC=Cc1cc2c(N3CCN(CCc4ccccc4)CC3)cccc2s1 [Example 59, 3-[4-(4-phenethyl-piperazin-1-yl)-benzo[b]thiophen-2-yl]-prop-2-en-1-ol hydrochloride] | – | – | – | – | Kb [3]: 0.00055 µM; Emax ([3]; dog, read-out: intrinsic (agonist) activity, saphenous vein preparation): 0%
11 | CC(O)c1cc2c(N3CCN(CCc4ccccc4)CC3)cccc2s1 (centres unmarked) [Example 43, 1-[4-(4-phenethyl-piperazin-1-yl)-benzo[b]thiophen-2-yl]ethanol hydrochloride] | – | – | 0.003 µM | 0.0005 µM | –
12 | CNC(=O)c1cc2c(N3CCNCC3)cccc2s1 [Example 49, 4-(1-piperazinyl)benzol[b]-thiophene-2-(N-methyl)carboxamide dihydrochloride hydrate] | – | – | 0.0084 µM | – | –
13 | NCc1cc2c(N3CCN(CCc4ccccc4)CC3)cccc2s1 [Example 55, 4-[4-(2-phenylethyl)-1-piperazinyl]-benzo[b]thiophene-2-methanamine dihydrochloride] | – | – | 0.012 µM | 0.003 µM | –
14 | O=[N+]([O-])c1ccc(CCN2CCN(c3cccc4sc(CO)cc34)CC2)cc1 [Example 50, 4-[4-[2-(4-nitrophenyl)ethyl]-1-piperazinyl]-benzo[b]thiophene-2-methanol hydrochloride] | 0.006 µM | 0.001 µM | – | – | –
15 | CCOC(=O)c1cc2c(N3CCN(CCc4ccccc4)CC3)cccc2s1 [Example 6, ethyl-4-[4-(2-phenylethyl)-1-piperazinyl]-benzo[b]thiophene-2-carboxylate monohydrochloride] | 0.108 µM | 0.037 µM | – | – | –
16 | CCCN1CCN(c2cccc3sc(CO)cc23)CC1 [Example 35, 4-[(4-propyl)-1-piperazinyl]benzo[b]thiophene-2-methanol hydrochloride] | 0.066 µM | 0.034 µM | – | – | –
17 | CCOC(=O)c1cc2c(N3CCN(CCc4ccc(OC)cc4)CC3)cccc2s1 [Example 30, ethyl-4-[4-[2-(4-methoxyphenyl)ethyl]-1-pierazinyl]-benzo-[b]thiophene-2-carboxylate monohydrochloride] | 0.073 µM | 0.074 µM | – | – | –
18 | OCc1cc2c(N3CCN(CCc4ccc(Cl)cc4)CC3)cccc2s1 [Example 19, 4-[4-[2-(4-chlorophenyl)ethyl]-1-piperazinyl]-benzo[b]thiophene-2-methanolmonohydrochloride] | – | – | 0.01 µM | 0.002 µM | –
19 | Cc1ccc(CCN2CCN(c3cccc4sc(C#N)cc34)CC2)cc1 [Example 28, 4-[4-[2-(4-methylphenyl)ethyl]-1-piperazinyl]-benzo[b]thiophene-2-nitrile monohydrochloride] | – | – | 0.056 µM | 0.004 µM | –
20 | OCc1cc2c(N3CCN(CCc4ccc(F)cc4)CC3)cccc2s1 [Example 23, 4-[4-[2-(4-fluorophenyl)ethyl]-1-piperazinyl]-benzo[b]thiophene-2-methanolmonohydrochloride] | – | – | 0.003 µM | 0.003 µM | –
21 | N#Cc1cc2c(N3CCN(CCc4ccccc4)CC3)cccc2s1 [Example 8, 4-[4-(2-phenylethy-1-piperazinyl]-benzo[b]thiophene-2-nitrilemonohydrochloride] | – | – | 0.018 µM | 0.004 µM | –
22 | N#Cc1cc2c(N3CCN(CCCc4ccccc4)CC3)cccc2s1 [Example 16, 4-[4-(3-phenylpropyl)-1-piperazinyl]-benzo[b]thiophene-2-nitrile monohydrochloride] | 0.173 µM | 0.021 µM | – | – | –
23 | CCOC(=O)c1cc2c(N3CCN(Cc4ccccc4)CC3)cccc2s1 [Example 1, ethyl-4-[4-(phenylmethyl)-1-piperazinyl]benzo[b]thiophene-2-carboxylate monohydrochloride] | > 1 µM | > 1 µM | – | – | –
24 | Cc1c(CO)sc2cccc(N3CCN(CCc4ccccc4)CC3)c12 [Example 33, 4-[4-(2,phenylethyl)-1-piperazinyl]-benzo[b]-thiophene-3-methyl-2-methanol monhydrochloride 0.5 hydrate] | – | – | 0.031 µM | 0.009 µM | –
25 | CCOC(=O)c1cc2c(N3CCNCC3)cccc2s1 [Example 5, ethyl 4-(1-piperazinyl)-benzo[b]thiophene-2-carboxylate monohydrochloride] | – | – | 0.047 µM | 0.089 µM | –
